In US20250127800A1, “PYRIMIDINE OR PYRIDINE DERIVATIVE AND MEDICINAL USE THEREOF” (SIGNET THERAPEUTICS INC., priority 2021, published 2025):
Like-named read-outs stand apart in the source and are kept apart here.

Legend:
[1] = tested on: NUGC4 cells; assay: Cell proliferation inhibition, NUGC4 (CELL TITER-GLO); format: cell-based; details: Homo sapiens, NUGC-4, 96 h; NUGC4, 4 days
Method: (§1) • a. SNU-668 cells (catalog number: 00668, KCLB) or NUGC4 cells (catalog number: 0834, JCRB) were allowed to grow to 70%-80% confluence, the supernatant of the culture medium was pipetitted off, rinsed once with PBS and then pipetitted off; • b. To a 10 cm dish was added 1 mL of 0.25% trypsin, votexed to homogenity and then place into incubator for digestion for 2-3 min; • c. The culture dish is removed from the incubator added with 2-3 mL complete culture medium to terminate the digestion, pipetitted into a 15 mL centrifuge tube, and then centrifuged in centrifuge at 1000 rpm for 5 minutes; • d. The supernatant was pipetitted off, and the cells were resuspended in 1 mL of complete culture medium, and then counted; • e. 1000 cells were plated into each well of 96-well plate, and then cultured overnight in a cell incubator, 2) Cell Administration with Compounds • a. Compounds to be tested were dissolved and votexed to homogeneity; • b. Each compound was serielly diluted in 1:3 ratio from 1 mM stock solution to 9 gradient concentrations; • c. The plate seeded with cells was taken out from the incubator, pipetitted off culture medium, and then added slowly in each well with 100 μL fresh culture medium by multi-channel pipette. Wells are labeled by corresponding compounds and concentrations, and then gently added with 100 μL compound-containing culture medium along the well wall by multi-channel pipette; • d. After the addition to all wells, the plate was gently shaken to allow homogeneous spread of the compound, and then put back to the incubator, with time recorded;
(§2) 4 days after the addition of compounds, the culture medium was removed and mixed at 100 μL from each well with cell titer-glo testing liquid in 1:1 ratio. The mixture was incubated with shaking at room temperature for 10 min and then counted with Plate reader.

[2] = In vivo pharmacokinetic evaluation in SD rats, gavage; details: rat, plasma, po, male SD rats, 3 mg/kg
Method: Three male SD rats were administered with compounds in a single dose of 5 mg/kg or 3 mg/kg by gavage, and blood samples were collected before administration and at 0.25, 0.5, 1, 2, 4, 6, 8, and 24 h after administration.
Preparation of solutions of compounds to be dosed at 5 mg/kg: 5.5 mg compound (converted based on purity) was accurately weighed and added to 0.55 mL of DMSO. Clear solutions were obtained after stirring and sonication. 0.5 mL of each of the above solutions was added with 1 mL of Solutol, stirred for 1 minute; and then added with 8.5 mL of physiological saline and stirred for 1 minute, to obtain a clear solution at 0.5 mg/mL concentration.
Preparation of a solution of compounds to be dosed at 3 mg/kg: 3.6 mg compound (converted according to purity) was accurately weighed and added to 0.6 mL of DMSO. Clear solutions were obtained after stirring and sonication. 0.5 mL of each of the above solutions was added with 1 mL of Solutol and stirred for 1 minute; and then added with 8.5 mL of physiological saline and stirred for 1 minute, to obtain a clear solution at 0.3 mg/mL concentration.
Rats were administered the formulations prepared in step 2 by gavage at a dose of 10 mL/kg. The rats were fasted overnight before the administration and resumed feeding 4 hours after administration. Throughout the entire experiment, the animals were free to access drinking water.
The plasma concentration was measured using LC-MS/MS method.

[3] = target: FAK (Homo sapiens (Human), UniProt Q05397); assay: In vitro enzymatic inhibitory activity, FAK kinase (HTRF KinEASE-TK)
[4] = tested on: SNU-668 cells; assay: Cell proliferation inhibition, SNU-668 (CELL TITER-GLO); format: cell-based; details: Homo sapiens, SNU668, 96 h; SNU-668, 4 days
Method: as §1, §2

[5] = tested on: activated YAP (non-p-YAP); assay: Western Blot of activated YAP in DGC organoid model; format: cell-based; details: 48 hours, dose-dependent
Method: (§3) Experimental procedures: Organoids were amplified in 6-well plates (7 Matrigel aliquots per well) for 2-3 days prior to evaluation. After passage, 1000 cells were inoculated in 5 μl Matrigel aliquot into each well containing 100 μl 50% L-WRN medium in a 96-well plate. Organoids were cultured for 24 hours, followed by addition of the compounds. Compounds were dissolved in DMSO as stock solution (with a final concentration of […]), which was then diluted with DMSO to 1000× concentration of the testing concentration. Culture medium was added to the stock solution to dilute to the testing concentration. The diluted solution was added to the culture plate. Once compound was added, culture medium was no longer added, and no further compound added. After the organoids were cultured for a specified number of days, the effects of compounds were evaluated by the following three methods, each using DMSO as negative control.
(§4) 2. After cell culture in accordance with the above procedure and culture with compounds for 48 hours, the cells were lysed, and proteins were extracted and tested by Western Blot. After gel imaging, gray values of protein bands were analyzed to investigate the effects of the compounds on phosphorylated FAK and activated YAP in the organoid model. (For detailed methods, please refer to Haisheng Zhang, Cancer Discovery, 2020).

[6] = tested on: FAK (p-FAK 397); assay: Western Blot of phosphorylated FAK in DGC organoid model; format: cell-based; details: 48 hours, dose-dependent
Method: as §3, §4

[7] = tested on: diffuse-type gastric cancer (DGC) organoid; assay: Cell morphology in diffuse-type gastric cancer (DGC) organoid model; format: cell-based; details: 500 nM compound
Method: as §3
1. There was a difference in cell morphology between normal cells and the diffuse-type gastric cancer (DGC) organoid model. Normal organoids have hollow spheroid shape, while organoids of diffuse-type gastric cancer have solid grape-like irregular shape. Therefore, the observations of the effect of drugs on cell morphology may be one of the important characteristics for evaluating drug efficacy.

[8] = FAK kinase, enzyme pre-incubation 15 minutes at 25° C.

FAK, sequence (Q05397 whole entry, species assumed): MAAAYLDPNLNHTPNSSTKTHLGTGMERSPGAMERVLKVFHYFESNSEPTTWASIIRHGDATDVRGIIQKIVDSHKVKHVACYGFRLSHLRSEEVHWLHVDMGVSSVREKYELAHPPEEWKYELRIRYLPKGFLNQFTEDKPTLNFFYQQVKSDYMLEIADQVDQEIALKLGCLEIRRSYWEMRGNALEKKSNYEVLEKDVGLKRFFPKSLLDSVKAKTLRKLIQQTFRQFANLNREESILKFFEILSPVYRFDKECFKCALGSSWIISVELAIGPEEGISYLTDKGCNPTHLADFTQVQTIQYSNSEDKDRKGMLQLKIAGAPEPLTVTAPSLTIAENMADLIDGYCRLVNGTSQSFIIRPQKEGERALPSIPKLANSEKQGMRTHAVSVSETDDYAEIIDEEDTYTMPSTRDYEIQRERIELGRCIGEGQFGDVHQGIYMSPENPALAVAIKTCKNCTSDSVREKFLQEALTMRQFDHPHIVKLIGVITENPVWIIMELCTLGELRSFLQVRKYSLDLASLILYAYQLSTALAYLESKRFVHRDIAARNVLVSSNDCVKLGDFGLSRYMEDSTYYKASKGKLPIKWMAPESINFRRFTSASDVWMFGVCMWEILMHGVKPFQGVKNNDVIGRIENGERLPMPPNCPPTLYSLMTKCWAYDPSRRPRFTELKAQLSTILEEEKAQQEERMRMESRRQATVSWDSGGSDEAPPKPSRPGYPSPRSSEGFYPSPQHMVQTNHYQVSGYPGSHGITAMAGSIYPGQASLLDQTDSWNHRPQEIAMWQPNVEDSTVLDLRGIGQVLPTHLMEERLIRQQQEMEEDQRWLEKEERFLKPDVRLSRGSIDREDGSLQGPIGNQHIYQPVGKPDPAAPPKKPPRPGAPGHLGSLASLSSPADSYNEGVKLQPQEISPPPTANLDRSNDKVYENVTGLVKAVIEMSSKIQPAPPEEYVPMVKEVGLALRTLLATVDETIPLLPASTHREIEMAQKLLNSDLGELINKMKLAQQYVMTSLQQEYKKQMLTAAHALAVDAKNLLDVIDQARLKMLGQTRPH

| IC50 [3, 8] [nM] | IC50 [4] [nM] | Structure (SMILES) | IC50 [1] [nM] | other results |
| --- | --- | --- | --- | --- |
| 0.97 | – | C=CC(=O)N1CCC[C@H](c2cccc(NCc3ccc(Nc4ncc(C(F)(F)F)c(Nc5ccccc5C(=O)NOC)n4)cc3)c2)C1 [Compound 36, (R) 2-((2-((4-(((3-(1-acryloylpiperidin-3-yl)phenyl)amino)methyl)phenyl)amino)-5-(trifluoromethyl)pyrimidin-4-yl)amino)-N-methoxybenzamide] | 90 | AUC(0-inf) [2]: 0.711 µM·h; AUC(0-t) [2]: 0.689 µM·h; Cmax [2]: 146 nM; Tmax [2]: 2.67 h; half-life [2]: 1.2 h |
| 17.9 | 140 | C=CC(=O)N1CCCC(c2cccc(NCc3ccc(Nc4ncc(C(F)(F)F)c(Nc5ccccc5C(=O)NC(C)C)n4)cc3)c2)C1 (centres unmarked) [Compound 18, 2-((2-((4-(((3-(1-acryloylpiperidin-3-yl)phenyl)amino)methyl)phenyl)amino)-5-(trifluoromethyl)pyrimidin-4-yl)amino)-N-isopropylbenzamide] | – | – |
| 4.98 | – | C=CC(=O)N1CCCC(c2cccc(NCc3ccc(Nc4ncc(C(F)(F)F)c(Nc5cccc6c5C(=O)N(C)C6)n4)cc3)c2)C1 (centres unmarked) [Compound 20, 7-((2-((4-(((3-(1-acryloylpiperidin-3-yl)phenyl)amino)methyl)phenyl)amino)-5-(trifluoromethyl)pyrimidin-4-yl)amino)-2-methylisoindolin-1-one] | 340 | – |
| – | – | C=CC(=O)N1CCC[C@@H](c2cccc(NCc3ccc(Nc4ncc(C(F)(F)F)c(Nc5ccccc5C(=O)NOC)n4)cc3)c2)C1 [Compound 37, (S) 2-((2-((4-(((3-(1-acryloylpiperidin-3-yl)phenyl)amino)methyl)phenyl)amino)-5-(trifluoromethyl)pyrimidin-4-yl)amino)-N-methoxybenzamide] | 120 | AUC(0-inf) [2]: 0.368 µM·h; AUC(0-t) [2]: 0.361 µM·h; Cmax [2]: 87.2 nM; Tmax [2]: 2.67 h; half-life [2]: 1.07 h; IC50 [3]: 1.35 nM |
| 1.27 | – | C=CC(=O)N1CCC[C@H](c2cccc(NCc3ccc(Nc4ncc(C(F)(F)F)c(Nc5ccccc5C(=O)NC)n4)cc3)c2)C1 [Compound 34, (R)-2-((2-((4-(((3-(1-acryloylpiperidin-3-yl)phenyl)amino)methyl)phenyl)amino)-5-(trifluoromethyl)pyrimidin-4-yl)amino)-N-methylbenzamide] | 80 | – |
| – | < 10 | C#CC(=O)N1CCCC(c2cccc(NCc3ccc(Nc4ncc(C(F)(F)F)c(Nc5ccccc5C(=O)NC)n4)cc3)c2)C1 (centres unmarked) [Compound 31] | 20 | – |
| 5.67 | – | C=CC(=O)N1CCCC(c2cccc(NCc3ccc(Nc4ncc(C(F)(F)F)c(Nc5ccccc5C(=O)NOC)n4)cc3)c2)C1 (centres unmarked) [Compound 11, 2-((2-((4-(((3-(1-acryloylpiperidin-3-yl)phenyl)amino)methyl)phenyl)amino)-5-(trifluoromethyl)pyrimidin-4-yl)amino)-N-methoxybenzamide] | 90 | inhibition of activated YAP (non-p-YAP) [5]: inhibit the activated YAP (non-p-YAP); inhibition of phosphorylation of FAK (p-FAK 397) [6]: can inhibit the phosphorylation of FAK (p-FAK 397); effect on cell morphology of DGC organoid [7]: significantly better effects than defactinib and IN-10018 |
| 6.73 | 60 | C=CC(=O)N1CCCC(c2cccc(NCc3ccc(Nc4ncc(Br)c(Nc5ccccc5C(=O)NC)n4)cc3)c2)C1 (centres unmarked) [Compound 16, 2-((2-((4-(((3-(1-acryloylpiperidin-3-yl)phenyl)amino)methyl)phenyl)amino)-5-bromopyrimidin-4-yl)amino)-N-methylbenzamide] | – | – |
| 10.4 | 210 | C=CC(=O)N1CCCC(c2cccc(NCc3ccc(Nc4ncc(C(F)(F)F)c(Nc5ccccc5S(=O)(=O)NC(C)C)n4)cc3)c2)C1 (centres unmarked) [Compound 19, 2-((2-((4-(((3-(1-acryloylpiperidin-3-yl)phenyl)amino)methyl)phenyl)amino)-5-(trifluoromethyl)pyrimidin-4-yl)amino)-N-isopropylbenzenesulfonamide] | 90 | – |
| – | 110 | C=CC(=O)N1CCCC(c2cccc(NCc3ccc(Nc4ncc(Cl)c(Nc5ccccc5C(=O)NC)n4)cc3)c2)C1 (centres unmarked) [Compound 15] | – | – |
| 3.75 | 90 | C=CC(=O)N1CCCC(c2cccc(NCc3ccc(Nc4ncc(C(F)(F)F)c(Nc5ccccc5S(=O)(=O)NC)n4)cc3)c2)C1 (centres unmarked) [Compound 30, 2-((2-((4-(((3-(1-acryloylpiperidin-3-yl)phenyl)amino)methyl)phenyl)amino)-5-(trifluoromethyl)pyrimidin-4-yl)amino)-N-methylbenzenesulfonamide] | – | – |
| 19.8 | – | C=CC(=O)N1CCCC(c2cccc(NCc3ccc(Nc4ncc(C(F)(F)F)c(Nc5cccc(F)c5C(=O)NC)n4)cc3)c2)C1 (centres unmarked) [Compound 13, 2-((2-((4-(((3-(1-acryloylpiperidin-3-yl)phenyl)amino)methyl)phenyl)amino)-5-(trifluoromethyl)pyrimidin-4-yl)amino)-6-fluoro-N-methylbenzamide] | – | inhibition of activated YAP (non-p-YAP) [5]: inhibit the activated YAP (non-p-YAP); inhibition of phosphorylation of FAK (p-FAK 397) [6]: can inhibit the phosphorylation of FAK (p-FAK 397) |
| 6.13 | < 10 | C=CC(=O)N1CCCC(c2cccc(NCc3ccc(Nc4ncc(C(F)(F)F)c(Nc5ccccc5C(=O)NCC)n4)cc3)c2)C1 (centres unmarked) [Compound 17, 2-((2-((4-(((3-(1-acryloylpiperidin-3-yl)phenyl)amino)methyl)phenyl)amino)-5-(trifluoromethyl)pyrimidin-4-yl)amino)-N-ethylbenzamide] | – | – |
| 3.71 | – | C=CC(=O)N1CCCC1c1ccc(NCc2ccc(Nc3ncc(C(F)(F)F)c(Nc4ccccc4C(=O)NC)n3)cc2)cc1 (centres unmarked) [Compound 9, 2-((2-((4-(((4-(1-acryloylpyrrolidin-2-yl)phenyl)amino)methyl)phenyl)amino)-5-(trifluoromethyl)pyrimidin-4-yl)amino)-N-methylbenzamide] | – | inhibition of activated YAP (non-p-YAP) [5]: inhibit the activated YAP (non-p-YAP); inhibition of phosphorylation of FAK (p-FAK 397) [6]: can inhibit the phosphorylation of FAK (p-FAK 397); effect on cell morphology of DGC organoid [7]: significantly better effects than defactinib and IN-10018 |
